{"source": "patent US20090269795A1", "about": "“Mutant alpha4betadelta GABAA receptor and methods of treating anxiety or irritability” (priority 2007, published 2009)", "key": {"α5β2/3γ2 receptors": {"tested_on": "α5β2/3γ2 receptors", "assay": "Whole cell patch clamp of GABA-gated current, recombinant receptors in HEK-293 cells", "type": "cell-based, rat", "settings": "30 nM THP", "source_text": "(§1) Recombinant receptors: Transfection—Plasmids obtained from S. Vicini (rat α1, α5, β2, β3 and γ2), P. Whiting (human α4 and δ) and N. L. Harrison (mouse α4) were propagated in E coli DH5α and prepared using Qiagen Maxi- or Midi-prep kits. (Rat, mouse and human α1, β2, β3 and γ2 subunits are identical or nearly identical.) All receptors were transfected at a 1:1:1 ratio, except α1β2γ2 (1:1:5)^12, α4βδ (5:1:5)^13 and α4β2γ2 (5:1:1). HEK-293 cells were maintained in medium (DMEM:Ham's F-12 1:1) supplemented with 10% fetal calf serum at 37° C. in a humid 5% CO2 atmosphere.\nThe pipet solution contained (in mM): N-methyl-D-glucamine chloride 120, Cs4BAPTA 5 (Calbiochem), Mg-ATP 5, and an ATP regeneration system (20 mM Tris phosphocreatine and creatine kinase). Internal [Cl^−] or the holding potential were varied, using gluconate as the anion, to alter the direction of Cl^− flow, corrected for the junction potential.\nHEK-293 cells were maintained in medium (DMEM:Ham's F-12 1:1) supplemented with 10% fetal calf serum at 37° C. in a humid 5% CO2 atmosphere."}, "α4β2δ GABAA receptors": {"tested_on": "α4β2δ GABAA receptors", "assay": "Whole cell patch clamp of GABA-gated current, recombinant receptors in HEK-293 cells", "type": "cell-based, human or mouse α4, rat β2, human δ", "settings": "30 nM THP", "source_text": "as §1, with “atmosphere. Cells were transfected using calcium phosphate or Polyfect (Qiagen) and co-transfected with enhanced green fluorescent protein (ratio of DNA to eGFP was 6:1 or 10:1 depending on the DNA concentration) for visualization. α4-containing GABAA receptors required 2-3 d for maximal levels of expression; all other receptors were recorded 1-2 d after transfection. Because mouse α4 and human α4-containing receptors yielded the same results, the currents were averaged together.” for “atmosphere.”\nWhole cell patch clamp recording—GABA-gated currents were recorded at room temperature (20-22° C.) at a holding potential of −50 mV^14. The pipet solution contained (in mM): N-methyl-D-glucamine chloride 120, Cs4BAPTA 5 (Calbiochem), Mg-ATP 5, and an ATP regeneration system (20 mM Tris phosphocreatine and creatine kinase). Internal [Cl^−] or the holding potential were varied, using gluconate as the anion, to alter the direction of Cl^− flow, corrected for the junction potential. In some cases, current-voltage curves were constructed using the peak current response to agonist or agonist+THP across a range of holding potentials (−60 to +60) applied as 10 mV steps, or as a voltage ramp. […] Traces are presented as the average of 3 traces after subtraction of the leak current. […] This rapid application technique yields currents with a rapid rise phase. THP was also bath applied 30 s prior to tests of steroid effects. Currents were recorded using an Axopatch 1D amplifier (Axon Instruments) filtered at 2 kHz (four-pole Bessel filter) and detected at 10 kHz (pClamp 5.1). Analysis of peak current was accomplished with pClamp 9.2 and Origin software (Microcal).\nFollowing the recording, the patch was blown out, and the open tip potential recorded using solutions with a 5% difference in NaCl osmolarity to verify the approximate solution exchange time. The time constant (τ) for desensitization was approximated using non-linear curve fitting routines with Levenburg-Marquardt algorithms (Origin software, Microcal). Goodness of fit was determined by minimizing the sum of the squares of deviations of the theoretical curve from the experimental points.\nRecombinant receptors: Human embryonic kidney (HEK)-293 cells were transfected with α4 β2δ or other indicated subunit combinations (see Supplementary Methods) and co-transfected with enhanced green fluorescent protein for visualization. GABA-gated currents were recorded at room temperature (20-22° C.) at a holding potential of −50 mV^17 using a pipet solution containing 120 mM: N-methyl-D-glucamine chloride. Internal [Cl^−] or the holding potential were varied to alter the direction of Cl^− flow. […] Currents were recorded using an Axopatch 1D amplifier (Axon Instruments) filtered at 2 kHz (four-pole Bessel filter), detected at 10 kHz and analyzed with pClamp 9.2. Desensitization rate was determined using non-linear curve-fitting routines (Origin, Microcal; see next section).\nFurther Studies with Recombinant receptors: Transfection—Plasmids obtained from S. Vicini (rat α1, α5, β2, β3 and y2), P. Whiting (human α4 and 6) and N. L. Harrison (mouse α4) were propagated in E coli DH5α and prepared using Qiagen Maxi- or Midi-prep kits. (Rat, mouse and human α1, β2, β3 and γ2 subunits are identical or nearly identical.) All receptors were transfected at a 1:1:1 ratio, except a132γ2 (1:1:5)^12, α4β28 (5:1:5)^13 and α4β2γ2 (5:1:1). […]"}, "[1]": {"tested_on": "CA1 hippocampal pyramidal cells", "assay": "Tonic GABAergic current, perforated-patch voltage-clamp, hippocampal slice", "type": "cell-based, mouse", "description": "Tonic current was recorded as the difference current produced by the selective GABAA receptor antagonist gabazine (120 μM) before and after 30 nM THP^4,29, while gramicidin perforated-patch recordings^33 were accomplished using 140 mM KCl plus 25 μg ml^−1 gramicidin in the pipet solution, recorded when the access resistance dropped to <60 MΩ after tight seal formation. Estimates of the direction of Cl^− current were obtained by recording using tight-seal cell-attached techniques^31 (>1 GΩ seal) in current clamp mode. A downward deflection signified outward (i.e., hyperpolarizing) Cl^− current.\nOne complication of whole-cell patch clamp recording is that normal ionic gradients are disrupted. Therefore, in order to verify that THP reduced tonic GABAergic currents in intact cells under conditions of unperturbed internal Cl^−, we directly recorded pharmacologically isolated tonic GABAergic current from the soma using perforated-patch voltage-clamp techniques in the hippocampal slice."}}, "data": [{"compound": "CC(=O)[C@H]1CC[C@H]2[C@@H]3CC[C@H]4C[C@H](O)CC[C@]4(C)[C@H]3CC[C@]12C", "note": "[THP, 3α-OH-5α[β]-pregnan-20-one]", "values": [{"measurement": "effect on outward current", "setting": "α5β2/3γ2 receptors", "value": "either increased or had no effect"}, {"measurement": "effect on Cl− reversal potential", "setting": "α4β2δ GABAA receptors", "value": "did not itself alter the Cl^− reversal potential"}, {"measurement": "effect applied without GABA", "setting": "α4β2δ GABAA receptors; no GABA", "value": "had no effect"}, {"measurement": "effect on outward current gated by 20 nM GABA", "setting": "α4β2δ GABAA receptors; 20 nM GABA", "value": "potentiated"}, {"measurement": "effect on inward currents", "setting": "α4β2δ GABAA receptors; 1 μM GABA", "value": "robustly increased inward currents"}, {"measurement": "decrease of outward GABA-gated Cl− current", "setting": "α4β2δ GABAA receptors; 1 μM GABA, −50 mV, mean±SEM", "value": "28±3", "unit": "%"}, {"measurement": "effect on peak current", "setting": "α4β2δ GABAA receptors; 100 μM GABA", "value": "unchanged"}, {"measurement": "desensitization of outward currents", "setting": "α4β2δ GABAA receptors; 100 μM GABA for 2 s, pre-THP 8±2%", "value": "87±5.6", "unit": "%"}, {"measurement": "time constant (τ) of desensitization", "setting": "α4β2δ GABAA receptors; 100 μM GABA, pre-THP 1700±200 ms", "value": "230 ± 35", "unit": "ms"}, {"measurement": "decrease of conductance of the outward current", "setting": "α4β2δ GABAA receptors; across a range of voltage steps", "value": "36-43%"}, {"measurement": "depression of outward GABAergic current", "setting": "[1]; 30 nM THP, pubertal, 1 μM TTX, 1 μM GABA", "value": "40±8", "unit": "%"}, {"measurement": "effect on post-synaptic GABAergic tonic current", "setting": "[1]; before puberty", "value": "had no effect"}, {"measurement": "effect on reversal potential", "setting": "[1]; pubertal", "value": "did not alter the reversal potential"}, {"measurement": "effect on GABA-gated conductance (gabazine-sensitive slope)", "setting": "[1]; pubertal, 10 mV steps −60 to −40 mV", "value": "decreased the GABA-gated conductance"}]}]}
